Reference: patent US9683014B2, “Dipeptide mimetics of NGF and BDNF neurotrophins” (UCHREZHDENIE ROSSIISKOI AKADEMII MEDITSYNSKIKH NAUK …, priority 2009, dated 2017)
Where two headings read alike, the source gives them in different places.

Columns and labels:
[1] = test system: rats with photothrombosis of the prefrontal cortex
Method: Male outbred rats weighing 180-200 g were used.
Experimental stages: surgery for photothrombosis, evaluation of motor activity (before and at 9 days after photothrombosis); PAR conditioning and the retention test at 9 days after photothrombosis; animal sacrifice, excision and fixation of the brain; morphologic examination and ischemic zone volume calculation.
The test substance was administered intraperitoneally at a dose of 1 mg/kg using the following regimen: at 1 h after surgery, at 24 h after the first administration, at 4 days and 6 days after the first administration.
PAR conditioning was performed according to the following protocol: The latency time (LT) was defined as the time between the start of testing and the moment of crossing the hole dividing the light and dark compartments. On day 1 the rat was placed in the light compartment (a 100 W light bulb) and, having explored it for a certain time (LT to learning), crossed into the dark compartment. Thereafter the door leading to this compartment was closed, and the rat was allowed to stay there for 5 min. One hour later the procedure was repeated by taking the rat out of the dark compartment. On the next day this procedure was repeated twice with a 1 h interval. During the second visit by the rat to the dark compartment the door was closed and electric current was passed through the metal bars in the floor (1.3 mA, 50 Hz, 5 sec). The PAR conditioning was considered established when the LT was at least 300 sec. Animals with lower LT values were excluded from the experiments.
A bilateral focal ischemic infarction of the prefrontal cortex of the rat brain (the Fr1 and Fr2 fields according to the atlas of Paxinos and Watson, 1986) was produced by the photoinduced thrombosis method (Watson et al., 1985). Animals were anesthetized with chloral hydrate (300 mg/kg i.p.). The photosensitive dye Bengal red (Sigma Chemical Co.) was injected into the jugular vein (3% solution, 40 mg/kg). The animal's head was clamped in the stereotaxis device, and the periosteum was removed after a longitudinal incision of the skin.
A light guide (the output light beam diameter 3 mm) was placed at a distance of 1 mm from the skull surface using the following coordinates: 2.00 mm rostral of the bregma and 2.00 mm lateral of the sagittal suture. Cold light illumination (a xenon lamp source, 25 V, 250 W) was carried out for 15 min at either side. Sham-operated animals were subjected to the same procedure except for the Bengal red injection. To assess their functional status, the animals were evaluated for their motor activity (MA) in a RODEO-1 automatic unit with an observation time of 5 min. The MA was analyzed before and at 9 days after the photothrombosis of the prefrontal cortex.

[2] = test system: rats with hemorrhagic stroke; settings: 1 mg/kg
Method: The experiments were carried out on male white outbred rats weighing 220-250 g. […] The local cerebral hemorrhage (post-traumatic intracerebral hemorrhage) as a hemorrhagic stroke (HS) model was produced by the method of Makarenko (Makarenko A. N. et al., Zh. V. N. D. 2002, 52(6), 765-768).
To produce the stroke, rats were anesthetized with chloral hydrate (400 mg/kg i.m.) followed by craniotomy. The cerebral tissue in the region of internal capsule was destroyed followed (in 2-3 min) by the injection of blood (0.02-0.03 ml) taken from under the animal's tongue.
The neurological deficits, changes in the coordination of movements, muscle tone, orientation and exploratory behavior of the rats were recorded at 24 h after surgery.
The rats were monitored for 14 days after surgery. Animal's physical condition and behavioral features were recorded at 1, 3, 7 and 14 days.
The animals were distributed into 3 groups. Group 1 comprised sham-operated (SO) rats with craniotomy alone, group 2 comprised animals with HS, and group 3 comprised rats with HS treated with GK-2 (1 mg/kg at 3 h after surgery and every 48 hours thereafter for a total of 6 administrations). Group 1 and group 2 animals were treated with physiological saline in an equivalent volume.
Changes in animals' physical condition and behavior were evaluated by conventional methods. The neurological status was assessed by scoring neurological deficits according to MacGrow's stroke scoring system as modified by I. V. Gannushkina; by the muscle tone and coordination of movements monitoring methods; cognitive function was assessed by the passive avoidance conditioned reflex (PAR); and orientation and exploratory behavior by using the open field test. Also the drug's effect on the survival of rats was monitored.

NCCCC[C@H](NC(=O)[C@H](CCC(=O)O)NC(=O)CCC(=O)O)C(=O)NCCCCCCNC(=O)[C@H](CCCCN)NC(=O)[C@H](CCC(=O)O)NC(=O)CCC(=O)O [GK-2, bis-(N-monosuccinyl-glutamyl-lysine) hexamethylenediamide]
retention of the PAR ([1]; 1 mg/kg i.p.): 100%
latency time of PAR, individual rats ([1]; 1 mg/kg i.p. at 1 h, 24 h, 4 and 6 days, at 8 days after photothrombosis, saline 20-105, sham 300): 300 s
latency time of PAR, group mean ([1]; 1 mg/kg i.p., n = 9, saline 59.2, sham 300): 300 s
latency time of PAR ([1]; 1 mg/kg i.p., photothrombosis alone 59.2 sec): at least 300 sec
Relative number of animals with paralysis of 1 to 4 limbs ([2]; Day 1, SO 0, HS 0): 0%
Relative number of animals with paresis of 1 to 4 limbs ([2]; Day 1, SO 0, HS 37.5): 20%
Relative number of animals with ring movements ([2]; Day 1, SO 0, HS 50): 20%
Relative number of animals with limb weakness ([2]; Day 1, SO 30, HS 75): 30%
Relative number of animals with floppiness & slowness of movements ([2]; Day 1, SO 40, HS 100): 40%
Number of rats failing to mount the horizontal bar, abs. ([2]; Day 1, sham 3/10, stroke 6/8): 4/10
Number of rats missing the rotating rod (3 rpm) during 2 min, abs. ([2]; Day 1, sham 3/10, stroke 6/8): 4/10
Vertical motor activity ([2]; Day 1, sham 5.0, stroke 1.25): 3.7 ± 0.9
Exploration of openings ([2]; Day 1, sham 10.3, stroke 1.9): 3.6 ± 0.7
Horizontal motor activity ([2]; Day 1, sham 14.1, stroke 4.4): 9.9 ± 2.1
Number of rats failing to mount the horizontal bar, % ([2]; Day 1, sham 30, stroke 75): 40%
Number of rats missing the rotating rod (3 rpm) during 2 min, % ([2]; Day 1, sham 30, stroke 75): 40%
Cumulative index ([2]; Day 1, sham 30.3, stroke 7.5): 17.2 ± 3.5
Relative number of animals with paralysis of 1 to 4 limbs ([2]; Day 3, SO 0, HS 0): 0%
Relative number of animals with paresis of 1 to 4 limbs ([2]; Day 3, SO 0, HS 25): 0%
Relative number of animals with ring movements ([2]; Day 3, SO 0, HS 37.5): 10%
Relative number of animals with limb weakness ([2]; Day 3, SO 30, HS 75): 30%
Relative number of animals with floppiness & slowness of movements ([2]; Day 3, SO 30, HS 100): 30%
Number of rats failing to mount the horizontal bar, abs. ([2]; Day 3, sham 2/10, stroke 3/8): 2/10
Number of rats missing the rotating rod (3 rpm) during 2 min, abs. ([2]; Day 3, sham 2/10, stroke 5/8): 3/10
Exploration of openings ([2]; Day 3, sham 4.0, stroke 3.1): 3.7 ± 0.9
Vertical motor activity ([2]; Day 3, sham 4.6, stroke 1.1): 2.4 ± 0.6
Horizontal motor activity ([2]; Day 3, sham 9.3, stroke 3.0): 5.6 ± 1.4
Cumulative index ([2]; Day 3, sham 17.9, stroke 7.2): 11.7 ± 2.4
Number of rats failing to mount the horizontal bar, % ([2]; Day 3, sham 20, stroke 37.5): 20%
Number of rats missing the rotating rod (3 rpm) during 2 min, % ([2]; Day 3, sham 20, stroke 62.5): 30%
Relative number of animals with paralysis of 1 to 4 limbs ([2]; Day 7, SO 0, HS 0): 0%
Relative number of animals with paresis of 1 to 4 limbs ([2]; Day 7, SO 0, HS 0): 0%
Relative number of animals with ring movements ([2]; Day 7, SO 0, HS 0): 0%
Relative number of animals with floppiness & slowness of movements ([2]; Day 7, SO 0, HS 43): 0%
Relative number of animals with limb weakness ([2]; Day 7, SO 0, HS 43): 0%
Number of rats failing to mount the horizontal bar, % ([2]; Day 7, sham 0, stroke 43): 10%
Number of rats missing the rotating rod (3 rpm) during 2 min, % ([2]; Day 7, sham 0, stroke 43): 20%
Number of rats failing to mount the horizontal bar, abs. ([2]; Day 7, sham 0/10, stroke 3/7): 1/10
Number of rats missing the rotating rod (3 rpm) during 2 min, abs. ([2]; Day 7, sham 0/10, stroke 3/7): 2/10
Exploration of openings ([2]; Day 7, sham 3.7, stroke 2.9): 4.3 ± 0.9
Vertical motor activity ([2]; Day 7, sham 4.1, stroke 1.0): 4.4 ± 0.7
Horizontal motor activity ([2]; Day 7, sham 8.6, stroke 3.7): 8.1 ± 1.6
Cumulative index ([2]; Day 7, sham 16.4, stroke 7.6): 16.8 ± 2.7
Relative number of animals with floppiness & slowness of movements ([2]; Day 14, SO 0, HS 0): 0%
Relative number of animals with limb weakness ([2]; Day 14, SO 0, HS 0): 0%
Relative number of animals with paralysis of 1 to 4 limbs ([2]; Day 14, SO 0, HS 0): 0%
Relative number of animals with paresis of 1 to 4 limbs ([2]; Day 14, SO 0, HS 0): 0%
Relative number of animals with ring movements ([2]; Day 14, SO 0, HS 0): 0%
Number of rats failing to mount the horizontal bar, % ([2]; Day 14, sham 0, stroke 17): 0%
Number of rats missing the rotating rod (3 rpm) during 2 min, % ([2]; Day 14, sham 0, stroke 17): 0%
Number of rats failing to mount the horizontal bar, abs. ([2]; Day 14, sham 0/10, stroke 1/6): 0/10
Number of rats missing the rotating rod (3 rpm) during 2 min, abs. ([2]; Day 14, sham 0/10, stroke 1/6): 0/10
Exploration of openings ([2]; Day 14, sham 5.0, stroke 2.8): 3.2 ± 0.9
Vertical motor activity ([2]; Day 14, sham 5.1, stroke 1.0): 2.8 ± 0.9
Horizontal motor activity ([2]; Day 14, sham 9.1, stroke 1.8): 7.5 ± 1.7
Cumulative index ([2]; Day 14, sham 19.2, stroke 5.7): 13.5 ± 2.9
